Test results taken from patent US11471448B2 (priority 2020, dated 2022).

System: rat venous stasis model, LPS-induced ARDS
Test: Rat venous stasis (Wessler) model after LPS-induced lung injury (ARDS induced thrombosis)
Type: in vivo
Settings: 250 mg/kg oral gavage 3, 24, 48, 72 h post LPS instillation; Sprague-Dawley rats; 30 min stasis
From the text: This study assessed the efficacy of ABC294640 to reduce the incidence of adverse thromboembolic events in situ in acute respiratory distress syndrome (ARDS) conditions using a rat venous stasis model. This assay is designed to measure thrombotic risks following LPS-induced lung injury. LPS-induced lung injury is one of the most commonly used rodent models for ARDS and was described to mimic the neutrophilic inflammatory response observed in ARDS patients. The mechanism of LPS-induced ARDS is based on damage to endothelial cells and a systemic inflammatory response. […]
Sprague-Dawley rats (male) weighing between 275 and 400 g were used for this study. […] The body weight was recorded before the instillation and 24, 48 and 72 hours post-instillation.
In this study, ARDS was induced by intratracheal instillation of LPS. […] The segment was then excised and its content scored. […]
• 1. Prior LPS or saline instillation, the functional respiratory parameters of all rat was assessed by whole-body plethysmography and SpO2 was evaluated on conscious rat with a collar probe pulse oximeter. […] The respiratory rate, the Penh and the inspiratory/expiratory time measurements was analyzed. • 2. […]
• 5. Rats were evaluated periodically to ensure animal well-being (general behavior and daily body weight). • 6. […] SpO2 and whole-body plethysmography were also evaluated 24, 48 and 72 hours post-instillation. • 8. […]

## O=C(NCc1ccncc1)C12CC3CC(C1)CC(c1ccc(Cl)cc1)(C3)C2 [ABC294640, 3-(4-chlorophenyl)-adamantane-1-carboxylic acid (pyridin-4-ylmethyl)amide]
  thrombosis (blood clot length, weight and total thrombus score): reduction of thrombosis
